Measured values published in patent US8466161B2, “Hydroxamate derivative, a production method for the same, and a pharmaceutical composition comprising the same” (Chong Kun Dang Pharmaceutical Corp., priority 2009, dated 2013).

Legend:
HDAC enzymes = experiment: Effects against HDAC enzymes (BIOMOL kit, Hela nuclear extract); assay type: biochemical; details: 37° C. 1 hour
Procedure: To measure effects against HDAC enzymes, a kit (BIOMOL International, LP) was used Each of test substances was dissolved in DMSO to a concentration of 10 mg/ml, and an assay buffer, an enzyme solution, a substrate and a staining reagent were prepared. […] Also, the staining reagent was a mixture of assay buffer (19/20), developer (1/20) and TSA (1/100). The assay buffer, the enzyme solution, the test substance and the substrate were added sequentially to a 96-well plate, stirred on a rocker for 3 minutes, and then incubated at 37° C. for 1 hour. After completion of the incubation, the staining reagent was added, and the mixture was stirred on a rocker for 1 minute and then incubated at 37° C. for 20 minutes (the staining reagent was mixed before addition).

[1] = tested on: HCT116 (human colorectal carcinoma); experiment: In vivo anticancer activity, HCT116 tumor transplantation model; design: species or system BALB/c nude mice (human tumor xenograft)
Procedure: (§1) Male BALB/c nude mice (4-week old) used in human tumor transplantation studies were purchased from Central Animal Laboratory Inc. (Korea) or Orient Bio Inc. (Korea). The animals were permitted ad libitum access to sterile feed and water in a sterile breeding system at 23+0.5° C.
(§2) For use in tumor transplantation studies, the human cancer cell lines HCT116 (human colorectal carcinoma, CCL-247), PC-3 (human prostate adenocarcinoma, CRL-1435), and A549 (human lung carcinoma, CCL-185) were purchased from ATCC (American Type Culture Collection, Rockville, Md., USA).
(§3) HCT116 cells were cultured in an air incubator under conditions of 37° C. and 5% CO2 using McCoy'SA medium (Gibco BRL) containing 10% heat-inactivated fetal bovine serum (Gibco BRL) and 1% antibiotics-antymycotics (Gibco BRL). Cell lines other than the HCT116 cell line were cultured in an air incubator under conditions of 37° C. and 5% CO2 using RPM1640 medium (Gibco BRL) containing 10% heat-inactivated fetal bovine serum (Gibco BRL) and 1% antibiotics-antymycotics (Gibco BRL).
(§4) Studies on the in vivo transplantation of human cancer cells were carried out in the following manner. Human cancer cells (HCT116, PC-3, and A549) that proliferated in vitro were injected subcutaneously into the abdominal region of BALB/c nude mice and allowed to proliferate in vivo. 20-25 days after the injection, the mice were sacrificed by cervical dislocation, and the solid cancer that proliferated in each of the mice was isolated aseptically, and connective or necrotic tissue and skin was removed therefrom, thus collecting a fresh cancer tissue. 50 mg of a fragment was taken aseptically from the cancer tissue and inserted into a 16-gauge trocar which was then transplanted subcutaneously into the upper abdominal region of mice.
(§5) 15-30 days after the human cancer cell lines have been transplanted into the BALB/c nude mice, only mice in which the cancer cells have proliferated to a given size were selected and used in the experiment. When the tumor size in each of the test groups reached 100-200 mm^3 after cancer cell transplantation, the experiment was started.
(§6) The anticancer effect of each drug was evaluated based on the inhibition rate (IR %) of tumor volume that indicates the tumor volume at reference date in comparison with control groups. […] Tumor size=(short diameter)×(long diameter)/2 I.R.(%)=[1−(mean tumor size of drug-administered group)/(mean tumor size of control group)]×100

[2] = Maximum tolerated dose in the HCT116 xenograft experiments; details: BALB/c nude, mouse, in vivo, ip
HL60 cell line = experiment: Inhibitory effect on growth of HL60 cell line (MTT); assay type: cell-based; details: Homo sapiens, HL-60, 72 h, 3 days culture
Procedure: In the culture of HL60 cells, 10% FBS-containing RPMI1640 medium was used Each of test substances was serially diluted in DMSO to a concentration of 10 mg/ml and serially diluted in PBS to a final concentration ranging from 100 μg/ml to 0.03 μg/ml. 20 μl (micro-liter) of each of the serially diluted test substances and 180 μl (micro-liter) of a medium containing 60×10^4 cells/ml were added to a 96-well plate and cultured under conditions of 37° C. and 5% CO2 for 3 days. After completion of the culture, 50 μl (micro-liter) of a solution of 1.25 mg/ml MTT (3-(4,5-dimethylthiazol-2-yl)-2,5-diphenyltetrazolium bromide) in PBS was added to each well of the plate and incubated at 37° C. for 3 hours. The formed formazan crystal was dissolved in 150 μl (micro-liter) of DMSO, and the absorbance at 570 nm was measured.

P450 (CYP3A4) = P450 (CYP3A4) (Homo sapiens, UniProt P08684); experiment: P450 (CYP3A4) inhibitory activity (BFC fluorescent substrate); assay type: in vitro ADME; details: FIG. 6; in words
Procedure: P450 (CYP3A4) is a metabolic enzyme, and non-inhibition of the enzyme by a test compound means that the test substance has a low possibility of causing side effects by interaction with other drugs. Each of compounds used in the test was dissolved in DMSO (10 mg/ml), and the dilution of each test substance to 2×10^−2 mg/ml was additionally performed in 200 μl (micro-liter) of a test system containing an assay buffer. The final solvent concentration was not higher than 2%. The CYP3A4 protein inhibitory test system included a total assay volume (100 μl (micro-liter)) of a NADPH production system (3.3 mM glucose-6-phosphate, 0.4 units/ml glucose-6-phosphate dehydrogenase, 1.3 mM NADP+ and 3.3 mM MgCl2.6H2O in assay buffer) and a test compound in each well of a 96-well plate. After pre-incubation at 37° C. for 10 minutes, 100 μl (micro-liter) of a KPO4 assay buffer containing […] P450 protein and 50 uM BFC (7-benzyloxy-trifluoromethylcoumarin) fluorescent probe substrate was added to the test system, and an enzyme reaction in the test system having a total assay volume of 200 μl (micro-liter) was initiated. […] Irradiation with fluorescence was carried out at an excitation wavelength of 409 nm and an emission wavelength of 530 nm.

[3] = tested on: PC-3 (human prostate adenocarcinoma); experiment: In vivo anticancer activity, PC-3 tumor transplantation model; design: species or system BALB/c nude mice (human tumor xenograft); details: for IR (%): Table 21, b.i.wk(Mon, Thu), 3 wks, ip
Procedure: as §1, §2, §3, §4, §5, §6

[4] = tested on: A549 (human lung carcinoma); experiment: In vivo anticancer activity, A549 tumor transplantation model; design: species or system BALB/c nude mice (human tumor xenograft); details: for IR (%): Table 20, b.i.wk(Mon, Thu), 3 wks, ip
Procedure: as §1, §2, §3, §4, §5, §6

[5] = BALB/c nude, mouse, in vivo, ip, 2 weeks
[6] = Table 18, 80 mg/kg/day, qd x 5, 2 wks, ip

Sequence of P450 (CYP3A4) (P08684 whole entry, species assumed): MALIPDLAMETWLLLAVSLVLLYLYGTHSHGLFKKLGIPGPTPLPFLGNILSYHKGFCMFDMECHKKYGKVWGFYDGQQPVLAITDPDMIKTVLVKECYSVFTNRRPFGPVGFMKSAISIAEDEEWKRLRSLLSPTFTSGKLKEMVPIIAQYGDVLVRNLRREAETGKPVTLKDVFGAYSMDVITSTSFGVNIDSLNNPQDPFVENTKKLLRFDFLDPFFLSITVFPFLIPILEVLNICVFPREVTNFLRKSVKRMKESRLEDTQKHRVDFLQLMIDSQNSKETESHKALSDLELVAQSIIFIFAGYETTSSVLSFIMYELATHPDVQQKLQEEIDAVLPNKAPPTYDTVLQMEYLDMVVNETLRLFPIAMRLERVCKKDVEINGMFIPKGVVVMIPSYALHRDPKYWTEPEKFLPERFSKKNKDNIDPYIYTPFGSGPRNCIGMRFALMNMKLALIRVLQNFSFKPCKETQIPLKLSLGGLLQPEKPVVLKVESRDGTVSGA

In the case of `O=C(/C=C/c1cccc(S(=O)(=O)Nc2ccccc2)c1)NO` [PXD 101, Belinostat, reference compound], the IC50 (HDAC enzymes) is reported as 100 to 200 nM, the “IR (%)” value [1, 6] is reported as 38% and the MTD at 2 weeks [2] is reported as 80 mg/kg. For the same compound, the IC50 (HL60 cell line) was 100 to 200 nM.

For `CN1CCN(C(=O)N(CCCCCCC(=O)NO)c2ccc(-c3ccc4cnn(C)c4c3)cc2)CC1` [Compound 312, N-(7-(hydroxyamino)-7-oxoheptyl)-4-methyl-N-(4-(1-methyl-1H-indazol-6-yl)phenyl)piperazine-1-carboxamide], the “P450 3A4 inhibition” value (P450 (CYP3A4)) was “did not inhibit”, the “P450 3A4 inhibitory activity relative to LBH 589” value (P450 (CYP3A4)) was “lower than that of LBH 589” and the “IR (%)” value ([3]; 60 mg/kg) was 39%. For the same compound, the “IR (%)” value ([3]; 80 mg/kg) was 39%, the “IR (%)” value ([3]; 100 mg/kg) was 59% and the “inhibitory effects against prostate cancer (PC-3) compared to LBH 589” value ([3]; twice a week for 3 weeks, in words) was “excellent inhibitory effects”. The “IR (%)” value ([1]; Table 18, 20 mg/kg/day, qd x 5, 2 wks, ip) was 51%, the “IR (%)” value ([1]; Table 18, 40 mg/kg/day, qd x 5, 2 wks, ip) was 58% and the “IR (%)” value ([1]; Table 18, 60 mg/kg/day, qd x 5, 2 wks, ip) was 70%. The “IR (%)” value [1, 6] was 81%, the “IR (%)” value ([1]; Table 22, 150 mg/kg, b.i.wk(Mon, Thu), 3 wks, p.o) was 52% and the “IR (%)” value ([1]; Table 22, 180 mg/kg, b.i.wk(Mon, Thu), 3 wks, p.o) was 55%. For the same compound, the “IR (%)” value ([1]; Table 22, 210 mg/kg, b.i.wk(Mon, Thu), 3 wks, p.o) was 69%, the “colon cancer (HCT 116) inhibitory effect compared to control drugs” value ([1]; ip, qd x 5, 2 wks, in words) was “excellent colon cancer inhibitory effects” and the “inhibitory effect against colon cancer (HCT116) upon oral administration compared to LBH 589, SAHA and MGCD0103” value ([1]; oral, twice a week for 3 weeks, in words) was “excellent inhibitory effect”. The IC50 (HL60 cell line) was 50 to 100 nM, the “IR (%)” value ([4]; 60 mg/kg) was 50% and the “IR (%)” value ([4]; 80 mg/kg) was 56%. For the same compound, the “IR (%)” value ([4]; 100 mg/kg) was 71% and the “inhibitory effect against non-small cell lung cancer (A549)” value ([4]; administered twice a week, in words) was “excellent inhibitory effect”.

In the case of `O=C(CCCCCCC(=O)Nc1ccccc1)NO` [SAHA, vorinostat, reference compound], the “IR (%)” value ([1]; Table 18, 100 mg/kg/day, qd x 5, 2 wks, ip) is reported as 46%, the “IR (%)” value ([1]; Table 22, 200 mg/kg/day, qd x 5, 3 wks, p.o) is reported as 26% and the “maximum tolerated doses (MTDs)” value [5] is reported as 100 mg/kg.
